Reference: patent US12083124B2 (Incyte Corporation, priority 2019, dated 2024)
Read-outs that look alike come from different tables or passages of the source.

How the values were obtained:
[1] = target: wild-type un-phosphorylated FGFR4 (Homo sapiens, UniProt P22455); test: FGFR Enzymatic Assay (FRET peptide phosphorylation), FGFR4
[2] = target: wild-type un-phosphorylated FGFR3 (Homo sapiens, UniProt P22607); test: FGFR Enzymatic Assay (FRET peptide phosphorylation), FGFR3
[3] = target: wild-type un-phosphorylated FGFR2 (Homo sapiens, UniProt P21802); test: FGFR Enzymatic Assay (FRET peptide phosphorylation), FGFR2
Sequence of wild-type un-phosphorylated FGFR2 (P21802 22-821): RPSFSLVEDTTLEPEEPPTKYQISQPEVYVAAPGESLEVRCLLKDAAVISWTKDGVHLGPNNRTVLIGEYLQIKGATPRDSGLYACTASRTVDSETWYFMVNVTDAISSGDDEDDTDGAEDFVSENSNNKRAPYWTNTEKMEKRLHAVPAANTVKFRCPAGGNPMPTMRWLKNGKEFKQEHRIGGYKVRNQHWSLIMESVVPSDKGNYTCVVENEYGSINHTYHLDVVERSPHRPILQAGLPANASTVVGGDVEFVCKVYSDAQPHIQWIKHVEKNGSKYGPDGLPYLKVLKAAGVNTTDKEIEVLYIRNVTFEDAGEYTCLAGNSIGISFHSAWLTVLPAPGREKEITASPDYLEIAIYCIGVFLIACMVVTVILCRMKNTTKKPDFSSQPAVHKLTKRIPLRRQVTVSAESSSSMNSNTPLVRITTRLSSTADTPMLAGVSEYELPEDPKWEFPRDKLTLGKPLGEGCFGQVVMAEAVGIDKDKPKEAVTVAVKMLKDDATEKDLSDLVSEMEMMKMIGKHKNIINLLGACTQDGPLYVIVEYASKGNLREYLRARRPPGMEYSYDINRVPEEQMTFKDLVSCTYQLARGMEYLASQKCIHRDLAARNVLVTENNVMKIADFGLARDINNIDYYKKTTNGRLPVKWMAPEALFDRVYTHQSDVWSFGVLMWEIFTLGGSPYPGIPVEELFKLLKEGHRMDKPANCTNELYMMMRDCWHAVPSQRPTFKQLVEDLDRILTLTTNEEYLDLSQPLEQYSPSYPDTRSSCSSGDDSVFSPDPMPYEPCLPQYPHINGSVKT

[4] = target: wild-type un-phosphorylated FGFR1 (Homo sapiens, UniProt P11362); test: FGFR Enzymatic Assay (FRET peptide phosphorylation), FGFR1; settings: pre-incubated for 4 hours
Sequence of wild-type un-phosphorylated FGFR1 (P11362 22-822): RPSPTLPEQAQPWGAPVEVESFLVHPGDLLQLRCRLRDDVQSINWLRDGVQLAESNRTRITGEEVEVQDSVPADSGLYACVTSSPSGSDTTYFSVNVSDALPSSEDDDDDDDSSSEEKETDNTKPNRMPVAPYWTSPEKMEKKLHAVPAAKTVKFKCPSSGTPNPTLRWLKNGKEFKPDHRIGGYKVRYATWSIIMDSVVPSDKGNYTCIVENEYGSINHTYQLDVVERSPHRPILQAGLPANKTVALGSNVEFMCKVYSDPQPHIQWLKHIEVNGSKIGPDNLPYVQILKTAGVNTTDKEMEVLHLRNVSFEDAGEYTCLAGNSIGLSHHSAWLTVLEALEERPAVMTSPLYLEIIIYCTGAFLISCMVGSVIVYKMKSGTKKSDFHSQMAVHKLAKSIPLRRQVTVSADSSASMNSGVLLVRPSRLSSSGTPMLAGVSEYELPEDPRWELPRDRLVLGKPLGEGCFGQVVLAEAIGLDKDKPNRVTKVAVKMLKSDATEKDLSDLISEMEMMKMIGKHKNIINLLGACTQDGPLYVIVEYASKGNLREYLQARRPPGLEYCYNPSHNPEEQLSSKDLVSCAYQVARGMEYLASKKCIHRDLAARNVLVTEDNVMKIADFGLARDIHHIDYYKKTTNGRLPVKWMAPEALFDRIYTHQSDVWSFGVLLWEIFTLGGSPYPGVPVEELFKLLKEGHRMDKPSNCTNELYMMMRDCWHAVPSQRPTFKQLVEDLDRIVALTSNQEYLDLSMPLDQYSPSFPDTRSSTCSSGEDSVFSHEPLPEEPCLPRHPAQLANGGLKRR

[5] = FGFR1, wild-type un-phosphorylated FGFR1
[6] = read-out: FGFR4, wild-type un-phosphorylated FGFR4, pre-incubated for 4 hours
[7] = read-out: FGFR1, wild-type un-phosphorylated FGFR1
[8] = read-out: FGFR2, wild-type un-phosphorylated FGFR2, pre-incubated for 4 hours

Sequence of wild-type un-phosphorylated FGFR4 (P22455 22-802): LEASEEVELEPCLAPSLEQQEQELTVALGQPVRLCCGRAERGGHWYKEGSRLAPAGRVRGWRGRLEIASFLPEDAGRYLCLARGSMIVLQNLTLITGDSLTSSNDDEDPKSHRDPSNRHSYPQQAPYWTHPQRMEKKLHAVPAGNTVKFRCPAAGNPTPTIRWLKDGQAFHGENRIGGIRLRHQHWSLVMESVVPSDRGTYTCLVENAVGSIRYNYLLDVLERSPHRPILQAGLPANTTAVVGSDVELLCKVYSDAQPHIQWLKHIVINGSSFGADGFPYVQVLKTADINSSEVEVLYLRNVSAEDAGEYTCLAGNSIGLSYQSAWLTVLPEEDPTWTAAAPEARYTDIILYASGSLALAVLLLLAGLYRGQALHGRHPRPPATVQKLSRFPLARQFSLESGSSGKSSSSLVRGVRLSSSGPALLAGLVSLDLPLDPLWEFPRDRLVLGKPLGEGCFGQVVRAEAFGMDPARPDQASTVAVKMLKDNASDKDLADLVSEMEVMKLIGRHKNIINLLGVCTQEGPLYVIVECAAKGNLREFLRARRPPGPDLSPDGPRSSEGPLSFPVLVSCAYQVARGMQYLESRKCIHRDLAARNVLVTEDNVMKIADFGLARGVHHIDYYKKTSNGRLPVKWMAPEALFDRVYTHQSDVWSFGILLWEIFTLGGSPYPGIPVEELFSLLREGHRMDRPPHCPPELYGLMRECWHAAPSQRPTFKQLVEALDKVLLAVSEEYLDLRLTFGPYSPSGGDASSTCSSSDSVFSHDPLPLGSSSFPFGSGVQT
Sequence of wild-type un-phosphorylated FGFR3 (P22607 23-806): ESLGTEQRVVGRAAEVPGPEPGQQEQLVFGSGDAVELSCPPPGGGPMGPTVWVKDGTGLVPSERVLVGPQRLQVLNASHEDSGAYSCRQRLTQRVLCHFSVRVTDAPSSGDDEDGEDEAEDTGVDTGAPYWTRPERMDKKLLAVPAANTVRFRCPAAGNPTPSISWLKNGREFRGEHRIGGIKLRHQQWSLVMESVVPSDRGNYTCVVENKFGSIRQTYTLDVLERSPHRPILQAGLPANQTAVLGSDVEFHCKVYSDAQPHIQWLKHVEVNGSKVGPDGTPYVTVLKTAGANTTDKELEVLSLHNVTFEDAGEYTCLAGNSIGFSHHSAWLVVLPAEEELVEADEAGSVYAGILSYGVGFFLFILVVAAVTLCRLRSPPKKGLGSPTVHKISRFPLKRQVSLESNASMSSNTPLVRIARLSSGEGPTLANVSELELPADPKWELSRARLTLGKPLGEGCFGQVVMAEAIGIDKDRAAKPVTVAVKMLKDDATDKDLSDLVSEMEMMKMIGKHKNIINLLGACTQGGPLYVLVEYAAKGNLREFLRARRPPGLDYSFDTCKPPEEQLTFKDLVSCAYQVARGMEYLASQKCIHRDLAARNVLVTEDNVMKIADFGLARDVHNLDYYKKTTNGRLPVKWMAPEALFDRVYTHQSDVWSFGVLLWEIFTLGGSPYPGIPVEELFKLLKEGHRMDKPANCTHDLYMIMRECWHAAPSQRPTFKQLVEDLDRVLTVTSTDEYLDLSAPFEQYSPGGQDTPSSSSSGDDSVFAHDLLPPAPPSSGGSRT

| IC50 [1] [µM] | IC50 [2] [µM] | IC50 [3] [µM] | IC50 [4, 5] [µM] | IC50 [1, 6] [µM] | IC50 [4, 7] [µM] | IC50 [3, 8] [µM] | SMILES |
| --- | --- | --- | --- | --- | --- | --- | --- |
| 0.04 to 0.1 | < 0.006 | < 0.006 | 0.04 to 0.1 |  |  |  | COc1cc2[nH]nc(-c3ccc(N4CCOCC4)nc3)c2nc1-c1cccc2c1CCC2 [Example 58, 4-(5-(5-(2,3-Dihydro-1H-inden-4-yl)-6-methoxy-1H-pyrazolo[4,3-b]pyridin-3-yl)pyridin-2-yl)morpholine] |
|  | < 0.006 | < 0.006 |  | 0.006 to 0.04 | 0.006 to 0.04 |  | CCNC(=O)N1CCN(c2ccc(-c3n[nH]c4cc(OC)c(-c5cccc6c5CCC6)nc34)cn2)CC1 [Example 59, 4-(5-(5-(2,3-Dihydro-1H-inden-4-yl)-6-methoxy-1H-pyrazolo[4,3-b]pyridin-3-yl)pyridin-2-yl)-N-ethylpiperazine-1-carboxamide] |
|  | < 0.006 | < 0.006 |  | 0.006 to 0.04 | 0.006 to 0.04 |  | COc1cc2[nH]nc(-c3ccc(N4CCN(C(N)=O)CC4)nc3)c2nc1-c1cccc2c1CCC2 [Example 60, 4-(5-(5-(2,3-Dihydro-1H-inden-4-yl)-6-methoxy-1H-pyrazolo[4,3-b]pyridin-3-yl)pyridin-2-yl)piperazine-1-carboxamide] |
| > 0.1 | < 0.006 | < 0.006 | 0.04 to 0.1 |  |  |  | COc1cc2[nH]nc(-c3ccc(N4CCN(C(C)=O)CC4)cc3)c2nc1-c1cccc2c1CCC2 [Example 61, 1-(4-(4-(5-(2,3-Dihydro-1H-inden-4-yl)-6-methoxy-1H-pyrazolo[4,3-b]pyridin-3-yl)phenyl)piperazin-1-yl)ethan-1-one] |
| > 0.1 | < 0.006 | < 0.006 |  |  | 0.006 to 0.04 |  | COc1cc2[nH]nc(-c3ccc(N4CCN(C(C)C)CC4)cc3)c2nc1-c1cccc2c1CCC2 [Example 62, 5-(2,3-Dihydro-1H-inden-4-yl)-3-(4-(4-isopropylpiperazin-1-yl)phenyl)-6-methoxy-1H-pyrazolo[4,3-b]pyridine] |
| 0.04 to 0.1 | < 0.006 | < 0.006 |  |  | 0.006 to 0.04 |  | CCN1CCN(c2ccc(-c3n[nH]c4cc(OC)c(-c5cccc6c5CCC6)nc34)cc2)CC1 [Example 63, 5-(2,3-Dihydro-1H-inden-4-yl)-3-(4-(4-ethylpiperazin-1-yl)phenyl)-6-methoxy-1H-pyrazolo[4,3-b]pyridine] |
| > 0.1 | < 0.006 | < 0.006 | > 0.1 |  |  |  | COc1cc2[nH]nc(-c3cnn(Cc4ccccn4)c3)c2nc1-c1cccc(C)c1C [Example 66, 5-(2,3-Dimethylphenyl)-6-methoxy-3-(1-(pyridin-2-ylmethyl)-1H-pyrazol-4-yl)-1H-pyrazolo[4,3-b]pyridine] |
| 0.04 to 0.1 | < 0.006 | < 0.006 | 0.04 to 0.1 |  |  |  | COc1cc2[nH]nc(-c3cnn(C4CN(C(=O)N(C)C)C4)c3)c2nc1-c1cccc(C)c1C [Example 72, 3-(4-(5-(2,3-Dimethylphenyl)-6-methoxy-1H-pyrazolo[4,3-b]pyridin-3-yl)-1H-pyrazol-1-yl)-N,N-dimethylazetidine-1-carboxamide] |
| > 0.1 | < 0.006 | < 0.006 | > 0.1 |  |  |  | COc1cc2[nH]nc(-c3ccc(C4CCN(C(=O)[C@H](C)O)CC4)nc3)c2nc1-c1cccc(C)c1C [Example 77, (S)-1-(4-(5-(5-(2,3-Dimethylphenyl)-6-methoxy-1H-pyrazolo[4,3-b]pyridin-3-yl)pyridin-2-yl)piperidin-1-yl)-2-hydroxypropan-1-one] |
| > 0.1 | < 0.006 | < 0.006 | > 0.1 |  |  |  | COc1cc2[nH]nc(-c3ccc(C4CCN(C(=O)CO)CC4)nc3)c2nc1-c1cccc(C)c1C [Example 78, 1-(4-(5-(5-(2,3-Dimethylphenyl)-6-methoxy-1H-pyrazolo[4,3-b]pyridin-3-yl)pyridin-2-yl)piperidin-1-yl)-2-hydroxyethan-1-one] |
| > 0.1 | < 0.006 | < 0.006 | 0.04 to 0.1 |  |  |  | COc1cc2[nH]nc(-c3cnn(C)c3)c2nc1-c1cccc2c1CC(F)C2 (stereo not drawn) [Example 84, 5-(2-Fluoro-2,3-dihydro-1H-inden-4-yl)-6-methoxy-3-(1-methyl-1H-pyrazol-4-yl)-1H-pyrazolo[4,3-b]pyridine] |
| 0.04 to 0.1 | < 0.006 | < 0.006 | 0.04 to 0.1 |  |  |  | COc1cc2[nH]nc(-c3ccc(N4CCN5C[C@@H](O)C[C@@H]5C4)nc3)c2nc1-c1cccc(C)c1C [Example 85, (7S,8aR)-2-(5-(5-(2,3-Dimethylphenyl)-6-methoxy-1H-pyrazolo[4,3-b]pyridin-3-yl)pyridin-2-yl)octahydropyrrolo[1,2-a]pyrazin-7-ol] |
| 0.04 to 0.1 | < 0.006 | < 0.006 | 0.04 to 0.1 |  |  |  | COc1cc2[nH]nc(-c3ccc(N4CCN5C[C@H](O)C[C@H]5C4)nc3)c2nc1-c1cccc(C)c1C [Example 87, (7R,8aS)-2-(5-(5-(2,3-Dimethylphenyl)-6-methoxy-1H-pyrazolo[4,3-b]pyridin-3-yl)pyridin-2-yl)octahydropyrrolo[1,2-a]pyrazin-7-ol] |
| > 0.1 | < 0.006 |  | 0.04 to 0.1 |  |  | 0.006 to 0.04 | COCCOc1ccc(-c2n[nH]c3cc(OC)c(-c4cccc5c4CC(O)C5)nc23)cn1 (stereo not drawn) [Example 95, 4-(6-Methoxy-3-(6-(2-methoxyethoxy)pyridin-3-yl)-1H-pyrazolo[4,3-b]pyridin-5-yl)-2,3-dihydro-1H-inden-2-ol] |
| > 0.1 | < 0.006 |  | 0.04 to 0.1 |  |  | 0.006 to 0.04 | COc1cc2[nH]nc(-c3ccc(OC4CCOCC4)nc3)c2nc1-c1cccc2c1CC(O)C2 (stereo not drawn) [Example 96, 4-(6-Methoxy-3-(6-((tetrahydro-2H-pyran-4-yl)oxy)pyridin-3-yl)-1H-pyrazolo[4,3-b]pyridin-5-yl)-2,3-dihydro-1H-inden-2-ol] |
| > 0.1 | < 0.006 |  | 0.04 to 0.1 |  |  | 0.006 to 0.04 | COc1cc2[nH]nc(-c3ccc(C4CC4)nc3)c2nc1-c1cccc2c1CC(O)C2 (stereo not drawn) [Example 97, 4-(3-(6-Cyclopropylpyridin-3-yl)-6-methoxy-1H-pyrazolo[4,3-b]pyridin-5-yl)-2,3-dihydro-1H-inden-2-ol] |
| > 0.1 | < 0.006 | < 0.006 | 0.04 to 0.1 |  |  |  | COc1cc2[nH]nc(-c3ccc(N4CC(N(C)C(=O)CO)C4)nc3)c2nc1-c1cccc(C)c1C [Example 98, N-(1-(5-(5-(2,3-Dimethylphenyl)-6-methoxy-1H-pyrazolo[4,3-b]pyridin-3-yl)pyridin-2-yl)azetidin-3-yl)-2-hydroxy-N-methylacetamide] |
|  | < 0.006 | < 0.006 |  | 0.006 to 0.04 | 0.006 to 0.04 |  | COc1cc2[nH]nc(-c3ccc(C4CCN(C(C)=O)CC4)nc3)c2nc1-c1cccc2c1CCC2 [Example 99, 1-(4-(5-(5-(2,3-Dihydro-1H-inden-4-yl)-6-methoxy-1H-pyrazolo[4,3-b]pyridin-3-yl)pyridin-2-yl)piperidin-1-yl)ethan-1-one] |
|  | < 0.006 | < 0.006 |  | 0.006 to 0.04 | 0.006 to 0.04 |  | COc1cc2[nH]nc(-c3ccc(C4CCN(C(=O)CO)CC4)nc3)c2nc1-c1cccc2c1CCC2 [Example 100, 1-(4-(5-(5-(2,3-Dihydro-1H-inden-4-yl)-6-methoxy-1H-pyrazolo[4,3-b]pyridin-3-yl)pyridin-2-yl)piperidin-1-yl)-2-hydroxyethan-1-one] |
|  | < 0.006 | < 0.006 |  | 0.006 to 0.04 | 0.006 to 0.04 |  | COc1cc2[nH]nc(-c3ccc(C4CCN(C(=O)[C@@H]5CCCN5C)CC4)nc3)c2nc1-c1cccc2c1CCC2 [Example 108, 5-(2,3-Dihydro-1H-inden-4-yl)-6-methoxy-3-(6-(1-(methyl-L-prolyl)piperidin-4-yl)pyridin-3-yl)-1H-pyrazolo[4,3-b]pyridine] |
|  | < 0.006 | < 0.006 |  | 0.006 to 0.04 | 0.006 to 0.04 |  | COc1cc2[nH]nc(-c3ccc(N4CCN(C)CC4)nc3)c2nc1-c1cccc2c1CCC2C#N (stereo not drawn) [Example 110, 4-(6-Methoxy-3-(6-(4-methylpiperazin-1-yl)pyridin-3-yl)-1H-pyrazolo[4,3-b]pyridin-5-yl)-2,3-dihydro-1H-indene-1-carbonitrile] |
| 0.04 to 0.1 | < 0.006 | < 0.006 | < 0.006 |  |  |  | COc1cc2[nH]nc(-c3cnn(C4CC(C#N)C4)c3)c2nc1-c1cccc2c1CCC2C#N (stereo not drawn) [Example 111, 4-(3-(1-(3-Cyanocyclobutyl)-1H-pyrazol-4-yl)-6-methoxy-1H-pyrazolo[4,3-b]pyridin-5-yl)-2,3-dihydro-1H-indene-1-carbonitrile] |
| 0.04 to 0.1 | < 0.006 | < 0.006 | 0.04 to 0.1 |  |  |  | COc1cc2[nH]nc(-c3cnn(C4CCN(C(C)=O)CC4)c3)c2nc1-c1cccc2c1CCC2C#N (stereo not drawn) [Example 112, 4-(3-(1-(1-Acetylpiperidin-4-yl)-1H-pyrazol-4-yl)-6-methoxy-1H-pyrazolo[4,3-b]pyridin-5-yl)-2,3-dihydro-1H-indene-1-carbonitrile] |
| 0.04 to 0.1 | < 0.006 | < 0.006 |  |  | 0.006 to 0.04 |  | COc1cc2[nH]nc(-c3ccc(C4CCC(O)CC4)nc3)c2nc1-c1cccc2c1CCC2C#N (stereo not drawn) [Example 113, 4-(3-(6-(4-Hydroxycyclohexyl)pyridin-3-yl)-6-methoxy-1H-pyrazolo[4,3-b]pyridin-5-yl)-2,3-dihydro-1H-indene-1-carbonitrile] |
